Reference: patent US20180002288A1, “USE OF PICOLINAMIDES AS FUNGICIDES” (DOW AGROSCIENCES LLC, priority 2014, published 2018)
Where two headings read alike, the source gives them in different places.

Columns and labels:
Pyricularia oryzae = assay: whole plant or invertebrate; format: in vivo; conditions: 24 h, read-out: PYRIOR % Control rating
Leptosphaeria nodorum = assay: Wheat Glume Blotch fungicidal activity (LEPTNO); format: in vivo; conditions: Parastagonospora nodorum, 24 h, high volume, 1 Day Protectant, read-out: LEPTNO % Control rating
Procedure: All fungicides were evaluated using the aforementioned method for their activity vs. all target diseases, unless stated otherwise. Wheat leaf blotch and brown rust activity were also evaluated using track spray applications, in which case the fungicides were formulated as EC formulations, containing 0.1% Trycol 5941 in the spray solutions. Wheat plants (variety Yuma) were grown from seed in a greenhouse in 50% mineral soil/50% soil-less Metro mix until the first leaf was fully emerged, with 7-10 seedlings per pot. These plants were inoculated with an aqueous spore suspension of Zymoseptoria tritici either prior to or after fungicide treatments. After inoculation the plants were kept in 100% relative humidity (one day in a dark dew chamber followed by two to three days in a lighted dew chamber at 20° C.) to permit spores to germinate and infect the leaf. The plants were then transferred to a greenhouse set at 20° C. for disease to develop. When disease symptoms were fully expressed on the 1st leaves of untreated plants, infection levels were assessed on a scale of 0 to 100 percent disease severity. Percent disease control was calculated using the ratio of disease severity on treated plants relative to untreated plants. Wheat plants (variety Yuma) were grown from seed in a greenhouse in 50% mineral soil/50% soil-less Metro mix until the first leaf was fully emerged, with 7-10 seedlings per pot. These plants were inoculated with an aqueous spore suspension of Leptosphaeria nodorum 24 hr after fungicide treatments. After inoculation the plants were kept in 100% relative humidity (one day in a dark dew chamber followed by two days in a lighted dew chamber at 20° C.) to permit spores to germinate and infect the leaf. The plants were then transferred to a greenhouse set at 20° C. for disease to develop. Fungicide formulation, application and disease assessment followed the procedures as described in the Example A.

Zymoseptoria tritici = assay: Leaf Blotch of Wheat fungicidal activity (SEPTTR); format: in vivo; conditions: Low Volume Cereal Activity at 121.5 g/Ha
Puccinia triticina = assay: Wheat Brown Rust fungicidal activity (PUCCRT); format: in vivo; conditions: Low Volume Cereal Activity at 121.5 g/Ha
[1] = system: Colletotrichum lagenarium; assay: Cucumber Anthracnose fungicidal activity (COLLLA); format: in vivo; conditions: Colletotrichum orbiculare, 24 h, high volume, 1 Day Protectant, read-out: COLLLA % Control rating
Procedure: All fungicides were evaluated using the aforementioned method for their activity vs. all target diseases, unless stated otherwise. Wheat leaf blotch and brown rust activity were also evaluated using track spray applications, in which case the fungicides were formulated as EC formulations, containing 0.1% Trycol 5941 in the spray solutions. Wheat plants (variety Yuma) were grown from seed in a greenhouse in 50% mineral soil/50% soil-less Metro mix until the first leaf was fully emerged, with 7-10 seedlings per pot. These plants were inoculated with an aqueous spore suspension of Zymoseptoria tritici either prior to or after fungicide treatments. After inoculation the plants were kept in 100% relative humidity (one day in a dark dew chamber followed by two to three days in a lighted dew chamber at 20° C.) to permit spores to germinate and infect the leaf. The plants were then transferred to a greenhouse set at 20° C. for disease to develop. When disease symptoms were fully expressed on the 1st leaves of untreated plants, infection levels were assessed on a scale of 0 to 100 percent disease severity. Percent disease control was calculated using the ratio of disease severity on treated plants relative to untreated plants. Cucumber seedlings (variety Bush Pickle) were propagated in soil-less Metro mix, with each pot having one plant, and used in the test when 12 to 14 days old. Test plants were inoculated with an aqueous spore suspension of Colletotrichum lagenarium 24 hr after fungicide treatments. After inoculation the plants were kept in a dew room at 22° C. with 100% relative humidity for 48 hr to permit spores to germinate and infect the leaf. The plants were then transferred to a growth room set at 22° C. for disease to develop. Fungicide formulation, application and disease assessment on the sprayed leaves followed the procedures as described in the Example A.

Phakopsora pachyrhizi = assay: Asian Soybean Rust fungicidal activity (PHAKPA); conditions: Phakopsora pachyrhizi, in Glycine max
[2] = 24 h, 1 Day Protectant, read-out: SEPTTR 1DP (Wheat Leaf Blotch, 1 Day Protectant)
[3] = 72 h, 3 Day Curative, read-out: SEPTTR 3DC (Wheat Leaf Blotch, 3 Day Curative)
[4] = 24 h, 1 Day Protectant, read-out: PUCCRT 1DP (Wheat Brown Rust, 1 Day Protectant)
[5] = 72 h, 3 Day Curative, read-out: PUCCRT 3DC (Wheat Brown Rust, 3 Day Curative)
[6] = 24 h, read-out: PHAKPA 1DP % Control rating, soybean, high volume, 25 ppm, 1 Day Protectant
[7] = 72 h, read-out: PHAKPA 3DC % Control rating, soybean, high volume, 25 ppm, 3 Day Curative

SMILES	pest or weed control at 100 ppm (Pyricularia oryzae) [%]	pest or weed control at 100 ppm (Leptosphaeria nodorum) [%]	pest or weed control at 121.5 g/ha (Zymoseptoria tritici; [2]) [%]	pest or weed control at 121.5 g/ha (Zymoseptoria tritici; [3]) [%]	pest or weed control at 121.5 g/ha (Puccinia triticina; [4]) [%]	pest or weed control at 121.5 g/ha (Puccinia triticina; [5]) [%]	pest or weed control at 100 ppm [1] [%]	pest or weed control at 25 ppm (Phakopsora pachyrhizi; [6]) [%]	pest or weed control at 25 ppm (Phakopsora pachyrhizi; [7]) [%]
COc1ccnc(C(=O)N[C@@H](C)C(=O)O[C@@H](C)[C@H](Oc2ccccc2)c2ccc3ccccc3c2)c1OCOC(C)=O [Example 263]	> 80	> 80	> 80	> 80	> 80	> 80	> 80		
COc1ccnc(C(=O)N[C@@H](C)C(=O)O[C@@H](C)[C@H](Oc2ccccc2Cl)c2ccccc2)c1OC(C)=O [Example 205]	> 80	> 80	> 80	> 80	> 80	> 80	> 80	< 80	< 80
COc1ccnc(C(=O)N[C@@H](C)C(=O)O[C@@H](C)[C@H](Oc2ccccc2)c2ccccc2)c1OCOC(C)=O [Example 183]	> 80	> 80	> 80	> 80	> 80	> 80	> 80	< 80	< 80
COc1ccnc(C(=O)N[C@@H](C)C(=O)O[C@@H](C)[C@H](Oc2ccc(F)cc2)c2ccccc2)c1OC(C)=O [Example 235]	> 80	> 80	> 80	> 80	> 80	> 80	> 80	< 80	< 80
COc1ccnc(C(=O)N[C@@H](C)C(=O)O[C@@H](C)[C@H](Oc2cc(F)cc(Cl)c2)c2ccccc2)c1OC(C)=O [Example 207]	> 80	> 80	> 80	> 80	> 80	< 80	> 80	< 80	< 80
COc1ccnc(C(=O)N[C@@H](C)C(=O)O[C@@H](C)[C@H](Oc2ccccc2)c2ccc(F)cc2C)c1OCOC(C)=O [Example 259]	> 80	> 80	> 80	> 80	> 80	> 80	> 80	> 80	< 0
COc1ccnc(C(=O)N[C@@H](C)C(=O)O[C@@H](C)C(Oc2ccc(F)cc2)c2ccc(F)cc2)c1OCOC(C)=O (some centres unmarked) [Example 238]	> 80	> 80	> 80	> 80	> 80	> 80	< 80	< 80	< 80
COc1ccnc(C(=O)N[C@@H](C)C(=O)O[C@@H](C)[C@H](Oc2ccccc2)c2ccc(C)cc2)c1OCOC(C)=O [Example 252]	> 80	> 80	> 80	> 80	> 80	> 80	> 80		
